Assay results taken from patent US10040804B2, “Compounds targeting proteins, compositions, methods, and uses thereof” (BioTheryX, Inc., priority 2016, dated 2018).

How the values were obtained:
[1] = system: IL-1β; test: IL-1β expression in LPS stimulated PBMCs (Meso Scale); format: cell-based, human; details: for inhibition at 0.1 µM / inhibition at 10 µM / inhibition at 1 µM: Homo sapiens, PBMC; for inhibition at 0.1 µM: compound concentration 0.1 μM; for inhibition at 10 µM: compound concentration 10 μM; for inhibition at 1 µM: compound concentration 1 μM
Protocol: FIGS. 5 and 9A are graphs showing IL-1-beta expression in LPS stimulated peripheral blood mononuclear cells (PBMCs), PBMCs were plated in 96-well plates and pretreated with compound (Compound 1-9 individually) for 1 h, and then induced with 100 ng/mL LPS for 18-24 h. Cytokines in the media were measured according to MesoScale protocol. Negative control wells were treated with DMSO. Compound activity is measured as a percentage of LPS-induced activity. “Rev” is lenalidomide.
(§1) Frozen primary blood mononuclear cells (PBMCs) and frozen CD14+ mobilized peripheral blood monocytes were purchased from AllCells. Cells were quick thawed, and washed 1-time with RPMI-1640/10% FBS/1% Penicillin/1% Streptomycin and plated in 96-well plates at 200,000 cells per well. Cells were pretreated with DMSO only, Compound 5013 (lenolidamide) or the indicated compound for 1 h and then induced with 100 ng/mL lipopolysaccharide (LPS) for 18-24 h. The supernatant was analyzed for IL-1 beta, IL-6, and TNF-α using Meso Scale assay according to manufacturer's protocol. The negative control wells were treated with DMSO.
(§2) PBMCs: AllCells PB003F, Normal Peripheral Blood MNC.
(§3) Media: RPMI 1640/10% FBS/1% Pen-Strep.

[2] = target: T1, GSPT1 (Homo sapiens, UniProt P15170); test: GSPT1 protein levels by Western Blot analysis; format: cell-based; details: DMSO = 100.00; for remaining activity at 0.1 µM: 100 nM compound concentration; for remaining activity at 1 µM: 1 μM compound concentration
T1 construct: Whole cell extracts were prepared using RIPA buffer according to manufacturer's protocol (Pierce); endogenous in cells
Protocol: Cells were lysed using RIPA Buffer (Pierce) and a Western Blot analysis was performed using anti-GSPT1 and anti-β-actin antibodies. FIG. 11B is a graph showing the expression levels of GSPT1 protein in Molm-13 (AML) cells. Protein expression levels were measured using the LiCor Odyssey instrumentation and methods.
Western Blot Protocol: Cell lines were grown in RPMI 1640 supplemented with streptomycin, penicillin and 10% fetal bovine serum.
Cells were cultured at approximately 10^6 cells per mL and incubated in DMSO or each of the indicated compounds for 6-8 h. Whole cell extracts were prepared using RIPA buffer according to manufacturer's protocol (Pierce). Briefly, 2×10^6 cells were washed once in PBS, the cell pellets were resuspended in RIPA buffer and allowed to incubate for 15 minutes on ice. Cells debris was removed by centrifugation and the cleared whole cell lysates were transferred to new tubes for further analysis.
For Western blot analysis, whole cell protein extracts were separated on 4-12% SDS-polyacrylamide gels, transferred to nitrocellulose, and probed with the indicated primary antibodies. Membranes were subsequently washed and probed with the appropriate IRDye secondary antibodies (LI-COR). The signal was detected using the Odyssey Imaging System (LI-COR).
GSPT1: Rabbit anti-GSPT1 was obtained from Abcam, ab126090 (Cambridge, Eng.)

[3] = system: H1048 cells; test: H1048 cell viability (CellTiter-Glo); format: cell-based; details: Homo sapiens; for viability at 1 µM / viability at 10 µM: NCI-H1048, 72 h, H1048, 3 days, DMSO = 100.00; for viability at 1 µM: 1 μM compound concentration; for viability at 10 µM: 10 μM compound concentration
Protocol: (§4) FIG. 10A is a graph showing antiproliferative activity in H1048 (SCLC) cells. FIG. 10B is a graph showing antiproliferative activity in Molm-13 (AML) cells. In FIGS. 10A and 10B, the cells were incubated for 72 hrs with Compound 9 at the indicated concentrations or DMSO. Compound activity was measured based on the signal from remaining viable cells.
(§5) Molm-13 cells were cultivated in RPMI-1640 (10% FBS/1% pen-strep) and were plated in white walled 96-well plates at 20,000 cells/well. H1048 cells were cultured in DMEM:F12 media supplemented with 5% fetal bovine serum, insulin, transferrin, sodium selenite, hydrocortisone, β-estradiol, penicillin and streptomycin, and were plated in white walled 96-well plates at 20,000 cells/well. MDA-MB-231 cells were cultured in DMEM media supplemented with 10% fetal bovine serum, penicillin and streptomycin, and were plated in white walled 96-well plates at 10,000 cells/well. Cells were treated with compound or DMSO (0.1%, control) and the cultures were incubated for 3 days at 37° C. and 5% CO2. Following the incubation period, 100 μL of CellTiterGlow (CTG) reagent (CellTiter-Glo® Luminescent Cell Viability Assay, Promega (Madison, Wis.)) was added to each well. Following a 10 min incubation with shaking, luminescence was measured using a Victor Wallac Luminometer.

[4] = system: TNF-α; test: TNF-α expression in LPS stimulated PBMCs (Meso Scale); format: cell-based, human; details: for inhibition at 0.1 µM / inhibition at 10 µM / inhibition at 1 µM: Homo sapiens, PBMC; for inhibition at 0.1 µM: compound concentration 0.1 μM; for inhibition at 10 µM: compound concentration 10 μM; for inhibition at 1 µM: compound concentration 1 μM
Protocol: FIGS. 7 and 9C are graphs showing TNF-a expression in LPS stimulated peripheral blood mononuclear cells (PBMCs). PBMCs were plated in 96-well plates and pretreated with compound (Compound 1-9 individually) for 1 h, and then induced with 100 ng/mL LPS for 18-24 h. Cytokines in the media were measured according to MesoScale protocol. The negative control wells were treated with DMSO. Compound activity is measured as a percentage of LPS-induced activity. “Rev” is lenalidomide.
as §1, §2, §3

[5] = system: IL-6; test: IL-6 expression in LPS stimulated PBMCs (Meso Scale); format: cell-based, human; details: for inhibition at 0.1 µM / inhibition at 10 µM / inhibition at 1 µM: Homo sapiens, PBMC, LPS-stimulated PBMCs; for inhibition at 0.1 µM: compound concentration 0.1 μM; for inhibition at 10 µM: compound concentration 10 μM; for inhibition at 1 µM: compound concentration 1 μM
Protocol: FIGS. 6 and 9B are graphs showing IL-6 expression in LPS stimulated peripheral blood mononuclear cells (PBMCs). PBMCs were plated in 96-well plates and pretreated with compound (Compound 1-9 individually) for 1 h, and then induced with 100 ng/mL LPS for 18-24 h. Cytokines were measured according to MesoScale protocol. Negative control wells were treated with DMSO. Compound activity was measured as a percentage of LPS-induced activity. “Rev” is lenalidomide.
as §1, §2, §3

[6] = system: Molm-13 cells; test: Molm-13 cell viability (CellTiter-Glo); format: cell-based; details: Homo sapiens; for cytotoxicity at 10 µM: compound concentration 10 μM; for cytotoxicity at 1 µM: compound concentration 1 μM; for cytotoxicity at 0.1 µM: compound concentration 0.1 μM
Protocol: as §4, §5

[7] = system: MDA-MB-231 cells; test: MDA-MB-231 cell viability (CellTiter-Glo); format: cell-based; details: Homo sapiens, 72 h, 3 days, DMSO = 100.00; for viability at 1 µM: 1 μM compound concentration; for viability at 10 µM: 10 μM compound concentration
Protocol: as §5

[8] = MOLM-13, read-out: % Inhibition (MOLM-13 Cell Viability)

T1 sequence (P15170 whole entry): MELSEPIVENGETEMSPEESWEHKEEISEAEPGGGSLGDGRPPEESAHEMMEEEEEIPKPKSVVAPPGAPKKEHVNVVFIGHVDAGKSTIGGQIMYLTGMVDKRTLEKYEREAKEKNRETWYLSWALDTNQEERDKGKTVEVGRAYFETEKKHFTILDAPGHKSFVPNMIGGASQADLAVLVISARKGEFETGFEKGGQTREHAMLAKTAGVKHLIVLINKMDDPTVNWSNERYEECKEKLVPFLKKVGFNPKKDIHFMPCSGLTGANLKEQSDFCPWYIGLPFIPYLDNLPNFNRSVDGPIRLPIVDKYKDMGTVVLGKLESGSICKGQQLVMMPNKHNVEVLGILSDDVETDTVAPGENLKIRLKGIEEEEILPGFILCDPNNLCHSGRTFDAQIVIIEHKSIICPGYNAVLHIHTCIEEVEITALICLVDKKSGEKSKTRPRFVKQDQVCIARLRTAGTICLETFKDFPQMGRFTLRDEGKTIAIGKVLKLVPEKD
T1 sequence (Q96SW2 whole entry, further chain): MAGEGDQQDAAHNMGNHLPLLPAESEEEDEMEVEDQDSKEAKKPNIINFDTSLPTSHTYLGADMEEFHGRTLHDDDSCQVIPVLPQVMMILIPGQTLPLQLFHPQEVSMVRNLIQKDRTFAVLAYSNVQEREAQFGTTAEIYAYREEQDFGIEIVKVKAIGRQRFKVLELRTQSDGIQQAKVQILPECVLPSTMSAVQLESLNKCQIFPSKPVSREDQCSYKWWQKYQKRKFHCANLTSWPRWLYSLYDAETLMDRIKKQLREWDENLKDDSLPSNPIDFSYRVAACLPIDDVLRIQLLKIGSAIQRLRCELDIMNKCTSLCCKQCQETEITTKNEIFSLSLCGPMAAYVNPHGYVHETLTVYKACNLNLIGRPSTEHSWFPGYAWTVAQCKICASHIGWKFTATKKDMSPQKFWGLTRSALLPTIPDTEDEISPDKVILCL
T1 sequence (Q16531 whole entry partner): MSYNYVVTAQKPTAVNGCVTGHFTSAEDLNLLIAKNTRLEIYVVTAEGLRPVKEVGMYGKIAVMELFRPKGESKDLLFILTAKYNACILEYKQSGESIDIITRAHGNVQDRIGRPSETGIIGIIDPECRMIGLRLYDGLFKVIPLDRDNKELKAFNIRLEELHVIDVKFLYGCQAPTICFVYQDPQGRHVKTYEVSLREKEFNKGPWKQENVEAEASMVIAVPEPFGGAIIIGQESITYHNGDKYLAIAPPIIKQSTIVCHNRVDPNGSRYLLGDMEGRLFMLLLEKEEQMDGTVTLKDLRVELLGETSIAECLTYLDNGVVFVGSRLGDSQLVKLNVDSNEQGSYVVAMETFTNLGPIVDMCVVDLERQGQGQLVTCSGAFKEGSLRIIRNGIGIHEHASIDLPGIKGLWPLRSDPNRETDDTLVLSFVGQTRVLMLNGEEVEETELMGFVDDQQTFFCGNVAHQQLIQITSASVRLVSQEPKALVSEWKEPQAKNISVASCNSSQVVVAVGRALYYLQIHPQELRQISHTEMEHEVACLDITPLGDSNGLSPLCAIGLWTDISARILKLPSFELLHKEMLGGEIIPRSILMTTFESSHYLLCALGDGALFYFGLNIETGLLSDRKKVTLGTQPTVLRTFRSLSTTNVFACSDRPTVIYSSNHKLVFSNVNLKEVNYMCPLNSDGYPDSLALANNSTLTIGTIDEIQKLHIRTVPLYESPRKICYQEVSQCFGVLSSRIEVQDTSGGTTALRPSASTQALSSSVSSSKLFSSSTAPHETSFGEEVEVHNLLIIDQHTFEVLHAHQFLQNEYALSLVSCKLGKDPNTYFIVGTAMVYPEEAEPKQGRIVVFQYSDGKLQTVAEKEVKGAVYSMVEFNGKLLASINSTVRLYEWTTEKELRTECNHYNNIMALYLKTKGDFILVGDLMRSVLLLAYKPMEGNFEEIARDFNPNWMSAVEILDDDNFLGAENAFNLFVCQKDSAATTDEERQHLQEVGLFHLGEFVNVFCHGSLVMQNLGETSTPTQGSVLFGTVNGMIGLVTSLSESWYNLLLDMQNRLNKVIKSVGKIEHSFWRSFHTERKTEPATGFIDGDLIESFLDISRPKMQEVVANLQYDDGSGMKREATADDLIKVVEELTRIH

| Structure (SMILES) | viability at 1 µM [3] | viability at 10 µM [3] | viability at 1 µM [7] | viability at 10 µM [7] | inhibition at 10 µM [1] | inhibition at 10 µM [4] | inhibition at 10 µM [5] | inhibition at 1 µM [1] | inhibition at 1 µM [4] | inhibition at 1 µM [5] | cytotoxicity at 1 µM [6, 8] | further results |
| --- | --- | --- | --- | --- | --- | --- | --- | --- | --- | --- | --- | --- |
| Cc1ccc(NC(=O)NCc2scc3c2CN(C2CCC(=O)NC2=O)C3=O)cc1Cl (centres unmarked) [Compound 9, 1-(3-chloro-4-methylphenyl)-3-((5-(2,6-dioxopiperidin-3-yl)-4-oxo-5,6-dihydro-4H-thieno[3,4-c]pyrrol-1-yl)methyl)urea] | 7.5% | 7.93% | 19.6% | 19.1% |  |  |  |  |  |  |  | inhibition at 0.1 µM [1]: 98%; remaining activity at 0.1 µM [2]: 6.77%; remaining activity at 1 µM [2]: 5.31%; IC50 ([3]; NCI-H1048, H1048 cells, 72 hrs (FIG. 10A)): 0.5 nM; inhibition at 0.1 µM [4]: 98%; inhibition at 0.1 µM [5]: 100%; cytotoxicity at 0.003 µM ([6]; MOLM-13, compound concentration 0.003 μM, read-out: % Inhibition (MOLM-13 Cell Viability)): 50%; IC50 ([6]; Molm-13 cells, 72 hrs (FIG. 10B), read-out: approximate IC50 cell viability): ~3 nM |
| O=C1CCC(N2Cc3c(csc3C(F)(F)F)C2=O)C(=O)N1 (centres unmarked) [Compound 29, 3-(4-Oxo-1-(trifluoromethyl)-4H-thieno[3,4-c]pyrrol-5(6H)-yl)piperidine-2,6-dione] |  |  |  |  | 57% | 60% | 19% |  |  |  |  | cytotoxicity at 10 µM [6, 8]: 10% |
| Cc1ccc(NC(=O)NCc2csc3c2CN([C@H]2CCCC(=O)NC2=O)C3=O)cc1Cl [Compound 45, (S)-1-(3-Chloro-4-methylphenyl)-3-((5-(2,7-dioxoazepan-3-yl)-6-oxo-5,6-dihydro-4H-thieno[2,3-c]pyrrol-3-yl)methyl)urea] | 12.7% | 9.89% | 101% | 46.7% |  |  |  | 19% | 22% | 18% | 59% | remaining activity at 0.1 µM [2]: 90.3%; remaining activity at 1 µM [2]: 22.3% |
| Cc1ccc(NC(=O)NCc2scc3c2CN(C2CCC(=O)NC2=O)C3=O)nc1Cl (centres unmarked) [Compound 46, 1-(6-Chloro-5-methylpyridin-2-yl)-3-((5-(2,6-dioxopiperidin-3-yl)-4-oxo-5,6-dihydro-4H-thieno[3,4-c]pyrrol-1-yl)methyl)urea] | 9.35% | 11.5% | 29% | 24.1% |  |  |  |  |  |  |  | inhibition at 0.1 µM [1]: 54%; remaining activity at 0.1 µM [2]: 65.2%; remaining activity at 1 µM [2]: 4.73%; inhibition at 0.1 µM [4]: 58%; inhibition at 0.1 µM [5]: 85%; cytotoxicity at 0.1 µM [6, 8]: 100% |
| Cc1ccc(NC(=O)Nc2scc3c2CN(C2CCC(=O)NC2=O)C3=O)cc1Cl (centres unmarked) [Compound 50, 1-(3-Chloro-4-methylphenyl)-3-(5-(2,6-dioxopiperidin-3-yl)-4-oxo-5,6-dihydro-4H-thieno[3,4-c]pyrrol-1-yl)urea] | 15.8% | 13.4% | 108% | 95.7% |  |  |  | 14% | 1% | 0% | 41% |  |
| Cc1ccc(CNC(=O)NCc2csc3c2CN([C@H]2CCCC(=O)NC2=O)C3=O)cc1Cl [Compound 51, (S)-1-(3-Chloro-4-methylbenzyl)-3-((5-(2,7-dioxoazepan-3-yl)-6-oxo-5,6-dihydro-4H-thieno[2,3-c]pyrrol-3-yl)methyl)urea] | 94.9% | 24.1% | 108% | 103% |  |  |  | 38% | 49% | 5% | 0% |  |
| Cc1ccc(CC(=O)Nc2scc3c2CN(C2CCC(=O)NC2=O)C3=O)cc1Cl (centres unmarked) [Compound 56, 2-(3-Chloro-4-methylphenyl)-N-(5-(2,6-dioxopiperidin-3-yl)-4-oxo-5,6-dihydro-4H-thieno[3,4-c]pyrrol-1-yl)acetamide] | 29.1% | 26.3% | 108% | 101% |  |  |  | 55% | 59% | 12% |  | cytotoxicity at 0.1 µM [6, 8]: 10% |
| Cc1cnc(Nc2ccc(OCCCNC(=O)NCc3scc4c3CN(C3CCC(=O)NC3=O)C4=O)cc2)nc1Nc1cccc(S(=O)(=O)NC(C)(C)C)c1 (centres unmarked) [Compound 62, N-(tert-Butyl)-3-((2-((4-(3-(3-((5-(2,6-dioxopiperidin-3-yl)-4-oxo-5,6-dihydro-4H-thieno[3,4-c]pyrrol-1-yl)methyl)ureido)propoxy)phenyl)amino)-5-methylpyrimidin-4-yl)amino)benzenesulfonamide] |  |  |  |  | 51% | 63% | 15% |  |  |  | 71% |  |
| Cc1sc2c(c1C)C(c1ccc(Cl)cc1)=N[C@@H](CC(=O)NCCCCNCC(=O)NCc1scc3c1CN([C@H]1CCCC(=O)NC1=O)C3=O)c1nnc(C)n1-2 [Compound 63, 2-((S)-4-(4-Chlorophenyl)-2,3,9-trimethyl-6H-thieno[3,2-f][1,2,4]triazolo[4,3-a][1,4]diazepin-6-yl)-N-(4-((2-(((5-((S)-2,7-dioxoazepan-3-yl)-4-oxo-5,6-dihydro-4H-thieno[3,4-c]pyrrol-1-yl)methyl)amino)-2-oxoethyl)amino)butyl)acetamide] |  |  |  |  | 27% | 34% | 1% |  |  |  |  |  |
| O=C1CCC(N2Cc3c(C4CCCC4)csc3C2=O)C(=O)N1 (centres unmarked) [Compound 64, 3-(3-Cyclopentyl-6-oxo-4H-thieno[2,3-c]pyrrol-5(6H)-yl)piperidine-2,6-dione] |  |  |  |  | 22% | 45% | 8% |  |  |  |  | cytotoxicity at 10 µM [6, 8]: 13% |
| Nc1cccc2c1CN(C1CCC(=O)NC1=O)C2=O (centres unmarked) [lenalidomide, reference compound] |  |  |  |  |  |  |  |  |  |  |  | reduction of expression of IL-1-b ([1]; equimolar concentration (FIG. 5)): over 60%; reduction of expression of TNF-α ([4]; equimolar concentration (FIG. 7)): below 60%; reduction of IL-6 levels ([5]; LPS-stimulated PBMCs (FIG. 6)): below 60% |
